US20250195628A1, “ANALYTICAL METHOD AND THERAPEUTICAL AGENT FOR USE IN COMBINATION WITH L-ASPARAGINASE IN TUMOUR THERAPY” (Medizinische Hochschule Hannover, priority 2022, published 2025)

What was measured:
[1] = test system: Cas9-expressing Jurkat cells; experiment: Cell viability after UBR2 knock-out by sgRNA and L-asparaginase treatment, Jurkat; type: cell-based, human; conditions: 100 U/L L-asparaginase, 48 h, versus sgAAVS1, FIG. 4A
Protocol: (§1) Cas9-expressing Jurkat cells or T-ALL cells (CCRF-CEM) were treated with sgRNA that specifically knocked-out UBR2 (sgUBR2 #3, […], SEQ ID NO: 3) or control sgRNA directed against the safe harbor control locus AAVS1 (sgAAVS1, 5′-[…]-3′, SEQ ID NO: 4), and after knock-out of UBR2 cells were incubated under cell-culture conditions with 100 U/L L-asparaginase (Asp) or PBS as control agent (Vehicle). Cell viability was analysed by Trypan blue exclusion after 48 h of incubation.
(§2) FIG. 4A for Jurkat cells, FIG. 4B for the T-ALL cells depict the cell viability normalized to the cell viability for Vehicle. […] P-values reflect the comparison of control inhibitor (AAVS1) and inhibitor of UBR2 (sgUBR2), calculated using a two-way ANOVA with Sidak's adjustments for multiple comparisons.

T-ALL cells (CCRF-CEM) = experiment: Cell viability after UBR2 knock-out by sgRNA and L-asparaginase treatment, CCRF-CEM; type: cell-based, human; conditions: 100 U/L L-asparaginase, 48 h, versus sgAAVS1, FIG. 4B
Protocol: as §1, §2

sgUBR2 #3: sgRNA that specifically knocked-out UBR2, GAAACTTGAAATAGTCTAAA, SEQ ID NO: 3 (listed as DNA, chemistry not given here)
effect on sensitivity for L-asparaginase (cell viability normalized to Vehicle) [1]: increased the sensitivity | effect on sensitivity for L-asparaginase (cell viability normalized to Vehicle) (T-ALL cells (CCRF-CEM)): increased the sensitivity
